The target in data set [1] is Histamine H4 receptor (Homo sapiens) (UniProt Q9H3N8). Description: Antagonist activity at H4R (unknown origin) expressed in HEK293 cells harboring glosensor-22F cAMP plasmid DNA assessed as effect on forskolin-stimulated cAMP accumulation at 10 uM preincubated with cells followed by forskolin addition measured after 10 mins by luminescence assay. Format: functional, cell-based.

In data set [2] the target is Histamine H1 receptor (Homo sapiens) (UniProt P35367). Description: Antagonist activity at H1R (unknown origin) expressed in HEK293 cells harboring luc2P/NFAT-RE plasmid at 10 uM after 6 to 8 hrs by luciferase reporter gene assay. It is filed as functional, cell-based.
Sequence of Histamine H1 receptor (Homo sapiens) (P35367 whole entry): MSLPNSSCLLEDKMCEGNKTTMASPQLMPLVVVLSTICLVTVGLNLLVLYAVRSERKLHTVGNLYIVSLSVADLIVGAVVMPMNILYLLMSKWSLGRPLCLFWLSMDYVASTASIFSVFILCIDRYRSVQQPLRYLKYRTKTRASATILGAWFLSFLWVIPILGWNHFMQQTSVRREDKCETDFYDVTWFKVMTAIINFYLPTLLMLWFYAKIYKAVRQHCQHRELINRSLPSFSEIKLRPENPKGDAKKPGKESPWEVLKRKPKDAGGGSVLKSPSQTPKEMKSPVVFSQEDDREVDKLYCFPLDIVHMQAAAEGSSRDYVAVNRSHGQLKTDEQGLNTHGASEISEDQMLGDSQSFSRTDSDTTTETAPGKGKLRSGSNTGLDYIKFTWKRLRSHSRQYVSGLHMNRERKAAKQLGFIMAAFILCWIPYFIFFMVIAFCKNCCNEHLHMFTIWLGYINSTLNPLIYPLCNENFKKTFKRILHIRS
Data set [3] has as its target Histamine H4 receptor (Homo sapiens) (UniProt Q9H3N8). Description: Agonist activity at H4R (unknown origin) expressed in HEK293 cells harboring glosensor-22F cAMP plasmid DNA assessed as inhibition of forskolin-stimulated cAMP accumulation at 10 uM preincubated with cells followed by forskolin addition measured after 10 mins by luminescence assay. It is filed as functional, cell-based.

Data set [4] deals with T1, 5-hydroxytryptamine receptor 2C (Homo sapiens) (UniProt P28335).
T1 sequence (whole entry): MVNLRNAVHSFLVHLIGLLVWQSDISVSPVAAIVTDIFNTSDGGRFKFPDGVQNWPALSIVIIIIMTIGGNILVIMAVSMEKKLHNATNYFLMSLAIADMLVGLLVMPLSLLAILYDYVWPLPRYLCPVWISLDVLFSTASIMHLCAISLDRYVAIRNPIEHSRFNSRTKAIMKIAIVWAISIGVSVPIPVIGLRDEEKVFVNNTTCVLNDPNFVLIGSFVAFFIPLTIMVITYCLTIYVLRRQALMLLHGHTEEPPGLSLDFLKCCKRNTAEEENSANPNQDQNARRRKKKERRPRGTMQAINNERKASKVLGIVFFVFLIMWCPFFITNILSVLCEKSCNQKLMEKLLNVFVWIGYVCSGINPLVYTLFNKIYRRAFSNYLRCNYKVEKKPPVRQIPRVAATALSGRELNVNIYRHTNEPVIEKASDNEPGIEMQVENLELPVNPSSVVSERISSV
Description: Agonist activity at human 5-HT2C expressed in HEK293 cells harboring luc2P/NFAT-RE plasmid at 10 uM after 6 to 8 hrs by luciferase reporter gene assay. Format: functional, cell-based.

For data set [5], the target named is Luciferin 4-monooxygenase (Photinus pyralis) (UniProt P08659). Description: Inhibition of firefly luciferase activity expressed in HEK293 cells assessed as reduction in forskolin-stimulated cAMP accumulation up to 10 uM preincubated with cells followed by forskolin addition measured after 10 mins by luminescence assay. Format: cell-based.
Sequence of Luciferin 4-monooxygenase (Photinus pyralis) (P08659 whole entry): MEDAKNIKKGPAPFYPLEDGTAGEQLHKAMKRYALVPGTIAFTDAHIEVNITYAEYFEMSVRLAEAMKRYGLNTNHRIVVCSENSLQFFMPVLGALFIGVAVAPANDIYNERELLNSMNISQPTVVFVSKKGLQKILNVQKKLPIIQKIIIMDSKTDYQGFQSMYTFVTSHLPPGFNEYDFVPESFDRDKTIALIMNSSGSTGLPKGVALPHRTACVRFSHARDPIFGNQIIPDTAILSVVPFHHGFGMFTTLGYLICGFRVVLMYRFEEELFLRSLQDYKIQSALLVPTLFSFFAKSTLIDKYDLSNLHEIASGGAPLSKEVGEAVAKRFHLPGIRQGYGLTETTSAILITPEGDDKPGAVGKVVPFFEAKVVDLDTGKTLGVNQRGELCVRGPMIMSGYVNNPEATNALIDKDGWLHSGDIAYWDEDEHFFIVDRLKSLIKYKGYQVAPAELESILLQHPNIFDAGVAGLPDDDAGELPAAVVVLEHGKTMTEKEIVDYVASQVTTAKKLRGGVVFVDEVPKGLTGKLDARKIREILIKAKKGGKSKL
Data set [6] has as its target Histamine H2 receptor (Homo sapiens) (UniProt P25021). Description: Antagonist activity at H2R (unknown origin) expressed in HEK293 cells harboring glosensor-22F cAMP plasmid DNA assessed as effect on forskolin-stimulated cAMP accumulation at 10 uM preincubated with cells followed by forskolin addition measured after 10 mins by luminescence assay. It is filed as functional, cell-based.

Data set [7] concerns the target T2, Histamine H3 receptor (Homo sapiens, UniProt Q9Y5N1). Description: Agonist activity at human H3R expressed in HEK293 cells harboring glosensor-22F cAMP plasmid DNA assessed as inhibition of forskolin-stimulated cAMP accumulation preincubated with cells followed by forskolin addition measured after 10 mins by luminescence assay. Format: functional, cell-based.

For data set [8], the target named is Histamine H2 receptor (Homo sapiens) (UniProt P25021). Description: Agonist activity at H2R (unknown origin) expressed in HEK293 cells harboring glosensor-22F cAMP plasmid DNA assessed as inhibition of forskolin-stimulated cAMP accumulation at 10 uM preincubated with cells followed by forskolin addition measured after 10 mins by luminescence assay. Format: functional, cell-based.
Sequence of Histamine H2 receptor (Homo sapiens) (P25021 whole entry): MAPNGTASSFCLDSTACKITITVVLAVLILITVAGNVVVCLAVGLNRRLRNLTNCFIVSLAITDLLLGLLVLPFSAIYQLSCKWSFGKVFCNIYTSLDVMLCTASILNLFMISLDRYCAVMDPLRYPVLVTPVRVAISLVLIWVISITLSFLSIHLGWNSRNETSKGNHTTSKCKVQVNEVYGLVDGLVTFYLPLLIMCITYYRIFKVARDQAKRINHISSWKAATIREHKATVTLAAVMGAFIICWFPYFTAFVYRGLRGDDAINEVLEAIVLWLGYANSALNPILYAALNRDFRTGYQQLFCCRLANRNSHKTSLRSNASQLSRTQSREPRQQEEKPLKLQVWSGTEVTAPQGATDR

Data set [9] concerns the target Histamine H1 receptor (Homo sapiens) (UniProt P35367). Description: Agonist activity at H1R (unknown origin) expressed in HEK293 cells harboring luc2P/NFAT-RE plasmid at 10 uM after 6 to 8 hrs by luciferase reporter gene assay. Format: functional, cell-based.
The next data set deals with HEK-293T. Description: Cytotoxicity against HEK293T cells assessed as reduction in cell viability at 1 to 10 uM after 24 hrs by XTT assay. Format: cell-based. Conditions: human.
Data set [10] concerns the target T2, Histamine H3 receptor. Description: Agonist activity at human H3R expressed in HEK293 cells harboring glosensor-22F cAMP plasmid DNA assessed as inhibition of forskolin-stimulated cAMP accumulation at 1 uM preincubated with cells followed by forskolin addition measured after 10 mins in presence of H3R antagonist GSK334429 by luminescence assay. It is filed as functional, cell-based.

Data set [11] addresses T1, 5-hydroxytryptamine receptor 2C (Homo sapiens). Description: Antagonist activity at human 5-HT2C expressed in HEK293 cells harboring luc2P/NFAT-RE plasmid at 10 uM after 6 to 8 hrs by luciferase reporter gene assay. Format: functional, cell-based.
Data set [12] has as its target T2, Histamine H3 receptor. Description: Agonist activity at human H3R expressed in HEK293 cells harboring glosensor-22F cAMP plasmid DNA assessed as inhibition of forskolin-stimulated cAMP accumulation at 10 uM preincubated with cells followed by forskolin addition measured after 10 mins by luminescence assay relative to control. Format: functional, cell-based.

Results on 29 molecules are retold here after ChEMBL document CHEMBL4152237, “Identification of novel β-lactams and pyrrolidinone derivatives as selective Histamine-3 receptor (H3R) modulators as possible anti-obesity agents” (Eur J Med Chem, 2018).

Activity calls are given as the source filed them.

Sequence of Histamine H4 receptor (Homo sapiens) (Q9H3N8 whole entry): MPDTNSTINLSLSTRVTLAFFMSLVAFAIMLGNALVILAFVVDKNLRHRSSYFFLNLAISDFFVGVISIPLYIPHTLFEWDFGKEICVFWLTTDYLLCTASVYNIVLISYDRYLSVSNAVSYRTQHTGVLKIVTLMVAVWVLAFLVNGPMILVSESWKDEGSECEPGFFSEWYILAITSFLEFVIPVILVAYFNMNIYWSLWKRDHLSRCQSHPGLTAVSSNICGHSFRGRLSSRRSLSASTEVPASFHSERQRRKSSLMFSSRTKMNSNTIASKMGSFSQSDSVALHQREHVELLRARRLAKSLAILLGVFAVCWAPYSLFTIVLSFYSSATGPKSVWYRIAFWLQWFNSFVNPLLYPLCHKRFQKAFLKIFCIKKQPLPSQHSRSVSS
T2 sequence (Q9Y5N1 whole entry): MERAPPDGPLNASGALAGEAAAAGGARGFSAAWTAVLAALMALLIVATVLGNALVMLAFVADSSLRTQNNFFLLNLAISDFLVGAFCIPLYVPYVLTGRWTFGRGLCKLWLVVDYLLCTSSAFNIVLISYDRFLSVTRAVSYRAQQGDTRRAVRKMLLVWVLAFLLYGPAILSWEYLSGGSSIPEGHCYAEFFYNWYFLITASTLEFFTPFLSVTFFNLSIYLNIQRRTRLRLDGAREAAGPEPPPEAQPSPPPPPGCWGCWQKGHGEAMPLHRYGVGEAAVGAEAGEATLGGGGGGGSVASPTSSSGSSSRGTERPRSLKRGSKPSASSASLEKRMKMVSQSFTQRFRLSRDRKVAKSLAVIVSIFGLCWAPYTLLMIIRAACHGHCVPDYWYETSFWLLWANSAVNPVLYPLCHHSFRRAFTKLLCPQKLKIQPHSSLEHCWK

For `COc1ccc(N2C(=O)/C(=C\c3ccccc3)C2(C(=O)NC(C)(C)C)c2ccc(Br)cc2)cc1OC` (stereo not drawn), the inhibition entry in data set [1], in data set [2], in data set [3], in data set [5], in [6] and in data set [8] was “inactive” throughout. Besides, the inhibition entry (at Histamine H3 receptor [10]; in data set [11]) was “inactive” in each case. The outcome in [4] and in data set [9] was inactive. Besides, the EC50 at Histamine H3 receptor [7] (read-out: EC50) was 24 nM; on Histamine H3 receptor [7] (read-out: pEC50 (converted)), 25.7 nM. The Activity result with HEK-293T was “Non-Toxic”.

`COc1cc(NC2(c3ccc(Br)cc3)C(=O)N(C(C)(C)C)C(=O)/C2=C/c2ccccc2)cc(OC)c1OC` (stereo not drawn): the inhibition entry in data set [1], in data set [2], in data set [3], in [5], in [6] and in [8] was “inactive” each time. Further, the inhibition entry (at Histamine H3 receptor [10]; in data set [11]) was “inactive” throughout. Further, the outcome in data set [4] and in data set [9] was inactive. For the same molecule, the EC50 on Histamine H3 receptor [7] (read-out: EC50) is 5.7 nM. For the same molecule, the Activity result in the data set on HEK-293T was “Non-Toxic”.

With `COC1=CC2(C=C(OC)C1=O)C(c1ccccc1)=C(c1ccc(C(F)(F)F)cc1)C(=O)N2C(C(=O)NC1CCCCC1)c1ccc(OC)c(OC)c1OC` (stereo not drawn), the inhibition entry in data set [1], in [2], in [3], in data set [5], in data set [6] and in data set [8] was “inactive” each time. For the same molecule, the inhibition entry (at Histamine H3 receptor [10]; in data set [11]) was “inactive” each time. Also, the result in data set [4] and in data set [9] was inactive. At Histamine H3 receptor [7] (read-out: EC50), the EC50 stood at 6.7 nM. In addition, the Activity result in the data set with HEK-293T is “Non-Toxic”.

Consider `N=C(N)SCCc1cnc[nH]1`, for which the EC50 at Histamine H3 receptor [7] (read-out: EC50) is 0.08 nM.

As for `Cc1ccc([C@@H]2C(=O)N[C@@H]3CC(=O)C=C[C@@]34C(c3ccccc3)=CC(=O)N24)cc1`, the inhibition result at Histamine H3 receptor [12] was “inactive”. Besides, in data set [4], the result was inactive.

On to `COc1ccc(C(C(=O)NC(C)(C)C)N2C(=O)C(I)=C(c3ccccc3)C23C=CC(=O)C=C3)cc1C` (stereo not drawn), for which the inhibition result at Histamine H3 receptor [12] was “inactive”. Further, the outcome in [4] was inactive.

With `O=C1C=CC2(C=C1)C(c1ccccc1)=C(I)C(=O)N2C(C(=O)NC1CCCCC1)c1ccccc1[N+](=O)[O-]` (stereo not drawn), the inhibition entry at Histamine H3 receptor [12] is “inactive”. Moreover, the outcome in data set [4] was inactive.

Regarding `O=C1C=C[C@]23C(c4ccccc4)=CC(=O)N2[C@H](c2cccc(Cl)c2)C(=O)N[C@@H]3C1`, the inhibition result at Histamine H3 receptor [12] was “inactive”. Moreover, the outcome in data set [4] was inactive.

Consider `O=C1C=C[C@]23C(c4ccccc4)=CC(=O)N2[C@H](c2ccc(OC(F)(F)F)cc2)C(=O)N[C@@H]3C1`, for which the inhibition entry at Histamine H3 receptor [12] is “inactive”. In data set [4], the outcome was inactive.

As for `COc1ccc(NC2(c3ccc(F)cc3)C(=O)N(C3CCCCC3)C(=O)/C2=C/c2ccccc2)cc1OC` (stereo not drawn), the inhibition result at Histamine H3 receptor [12] was “inactive”. Also, the result in [4] was inactive.

On to `O=C1C=C[C@]23C(c4ccccc4)=CC(=O)N2[C@H](c2ccc(Cl)cc2)C(=O)N[C@@H]3C1`, for which the inhibition entry at Histamine H3 receptor [12] is “inactive”. The outcome in data set [4] was inactive.

On to `COC1=CC2(C=C(OC)C1=O)C(c1ccccc1)=C(c1ccc(OC)cc1)C(=O)N2C(C(=O)NC1CCCCC1)c1cc(OC)c(OC)c(OC)c1` (stereo not drawn), for which, on Histamine H3 receptor [12], the inhibition entry is “inactive”. Moreover, in data set [4], the result was inactive.

Take `COc1ccc(C2=C(c3ccccc3)C3(C=CC(=O)C=C3)N(C(C(=O)NC3CCCCC3)c3ccc(OC)c(C)c3)C2=O)cc1` (stereo not drawn): the inhibition result at Histamine H3 receptor [12] is “inactive”. Besides, in data set [4], the result was inactive.

As for `O=C1C=C[C@]23C(c4ccccc4)=CC(=O)N2[C@H](c2cccc(Br)c2)C(=O)N[C@@H]3C1`, the inhibition entry at Histamine H3 receptor [12] was “inactive”. In [4], the result was inactive.

Consider `COc1ccc(NC2(c3cc(F)cc(F)c3)C(=O)N(C(C)(C)C)C(=O)/C2=C/c2ccccc2)cc1` (stereo not drawn), for which the inhibition result at Histamine H3 receptor [12] was “inactive”. The result in data set [4] was inactive.

`COc1cc(OC)c(C(C(=O)NC2CCCCC2)N2C(=O)C(c3ccc(CO)cc3)=C(c3ccccc3)C23C=CC(=O)C=C3)cc1OC` (stereo not drawn): at Histamine H3 receptor [12], the inhibition entry was “inactive”. For the same molecule, in data set [4], the outcome was inactive.

Regarding `COc1ccc(C(C(=O)NC2CCCCC2)N2C(=O)C(I)=C(c3ccccc3)C23C=CC(=O)C=C3)cc1` (stereo not drawn), the inhibition entry on Histamine H3 receptor [12] is “inactive”. Besides, in [4], the result was inactive.

Take `COc1ccc([C@@H]2C(=O)N[C@@H]3CC(=O)C=C[C@@]34C(c3ccccc3)=CC(=O)N24)cc1`: the inhibition result at Histamine H3 receptor [12] is “inactive”. Also, the result in data set [4] was inactive.

For `COc1cc(N2C(=O)C(=Cc3ccccc3)C2(C(=O)NC(C)(C)C)c2cc(C)cc(C)c2)cc(OC)c1OC` (stereo not drawn), the inhibition result on Histamine H3 receptor [12] is “inactive”. Moreover, in data set [4], the outcome was inactive.

With `O=C1C=CC2(C=C1)C(c1ccccc1)=C(I)C(=O)N2C(C(=O)NC1CCCCC1)c1cc2c(cc1Br)OCO2` (stereo not drawn), on Histamine H3 receptor [12], the inhibition result was “inactive”. For the same molecule, the outcome in data set [4] was inactive.

In the case of `CC(C)(C)NC(=O)C(c1cc2c(cc1Br)OCO2)N1C(=O)C(I)=C(c2ccccc2)C12C=CC(=O)C=C2` (stereo not drawn), the inhibition result on Histamine H3 receptor [12] was “inactive”. In addition, the outcome in data set [4] was inactive.

Take `Cc1ccccc1C(C(=O)NC(C)(C)C)N1C(=O)C(I)=C(c2ccccc2)C12C=CC(=O)C=C2` (stereo not drawn): the inhibition entry at Histamine H3 receptor [12] was “inactive”. In addition, in data set [4], the result was inactive.

On to `COc1cc(NC2(c3ccc(Cl)c(F)c3)C(=O)N(C(C)(C)C)C(=O)/C2=C/c2ccccc2)cc(OC)c1OC` (stereo not drawn), for which the inhibition result at Histamine H3 receptor [12] is “inactive”. Besides, the result in [4] was inactive.

For `COc1ccc(C(C(=O)NC(C)(C)C)N2C(=O)C(I)=C(c3ccccc3)C23C=CC(=O)C=C3)cc1` (stereo not drawn), the inhibition entry on Histamine H3 receptor [12] is “inactive”. In addition, the outcome in data set [4] was inactive.

Regarding `COc1ccc(C2=C(c3ccccc3)C3(C=CC(=O)C=C3)N(C(C(=O)NC(C)(C)C)c3ccccc3C)C2=O)cc1` (stereo not drawn), on Histamine H3 receptor [12], the inhibition entry was “inactive”. Further, the outcome in [4] was inactive.

For `COc1ccc(N2C(=O)/C(=C\c3ccccc3)C2(C(=O)NC(C)(C)C)c2cccc(Cl)c2)cc1` (stereo not drawn), the inhibition entry at Histamine H3 receptor [12] was “inactive”. Further, the result in [4] was inactive.

As for `COc1ccc(NC2(c3cc(C)cc(C)c3)C(=O)N(C(C)(C)C)C(=O)/C2=C/c2ccccc2)cc1` (stereo not drawn), the inhibition entry on Histamine H3 receptor [12] was “inactive”. The outcome in [4] was inactive.

As for `COc1ccc(NC2(c3ccc(Cl)c(F)c3)C(=O)N(C(C)(C)C)C(=O)/C2=C/c2ccccc2)cc1` (stereo not drawn), the inhibition entry at Histamine H3 receptor [12] was “inactive”. Also, in data set [4], the outcome was inactive.

`COc1ccc(N2C(=O)/C(=C\c3ccccc3)C2(C(=O)NC2CCCCC2)c2cc(F)cc(F)c2)cc1OC` (stereo not drawn): the inhibition result on Histamine H3 receptor [12] is “inactive”. The result in data set [4] was inactive.
